Reference: article PMC9718561, “Multi-functional chitosan copolymer modified nanocrystals as oral andrographolide delivery systems for enhanced bioavailability and anti-inflammatory efficacy” (Drug Delivery, 2022)
In brackets after ≈: the same amount, converted by molar mass. Where two headings read alike, the source gives them in different places. Values belong to the molecule of their own block, whether it stands above or below them.

Experiments:
[1] = Real-time distribution in the gastrointestinal tract (fluorescent labelling, live imaging); format: in vivo; settings: SD rats, oral
Procedure: We performed real-time distribution study to explore whether the functional materials have played their full enhancing ability in oral absorption. We used acridine orange to label SDS, fluorescein isothiocyanate isomer I to label TPGS, CS, SDS-TPGS and SDS-CS-TPGS, and rhodamine B to label ADR, respectively. […] The SDS-CS-TPGS + ADR group was administered with SDS-CS-TPGS and ADR at the same time. The animals were killed by cervical dislocation at the pre-set time points of 0.5 h, 1 h, 2 h and 3 h. Then the gastrointestinal tract was removed in time and put it into a small animal live imaging system (Lumina XR, PerkinElmer, America) for photographic observation.
The distribution of gastrointestinal segments in each group of animals at each time period was observed by in live imaging system (Figure 5A). […] In order to further understand the distribution of various materials and ADR in the gastrointestinal tract, we divided the gastrointestinal tract of SD rats into ten parts such as stomach, small intestine which divided into 8 sections on average and colon, as shown in Figure 5(B). […] For example, when SDS-CS-TPGS were taken orally with ADR, the time of 50% SDS-CS-TPGS passing part 4, part 5 and part 6 of small intestine was 0.67 ± 0.01 h, 0.98 ± 0.06 h and 1.04 ± 0.13 h, respectively, which were not much different from that of ADR, as the passing time of ADR in part 4, part 5 and part 6 was 0.65 ± 0.04 h, 1.02 ± 0.01 h and 1.03 ± 0.01 h, respectively. However, these times of other materials and ADR were different, indicating the materials and ADR could not reach the same site of gastrointestinal tract at the same time, which may limit the absorption enhancing ability of functional materials. Combining the results described above, we can conclude that materials in physical mixture may separate in intestinal, and synthesized copolymer could reduce the separation and has better ability to […] the absorption site of drug at the same time.
The passing times of 50% ADR and polymer materials passed through the fourth (T4(50)), fifth (T5(50)) and sixth (T6(50)) segments of small intestine of SD rats were shown in Table S2, and we can find the distribution of ADR and copolymer (S-C-T) were similar.

[2] = test system: ear swelling ICR mice model; assay: Arachidonic acid ear swelling model, ear swelling rate; format: in vivo; settings: indomethacin 10 mg/kg po; ADR injection 10 mg/kg iv; ADR 100 mg/kg po; S-C-TANs L 25, M 50, H 100 mg/kg po
Procedure: To explore whether the enhancing on bioavailability could result in enhanced therapeutic effect, we studied the anti-inflammatory efficacy of nanocrystal. The ear swelling ICR mice model was established by using arachidonic acid and the anti-inflammatory efficacy was evaluated by employing ear swelling rate of ICR mice serum levels of TNF-α, IL-6 and IL-1β, as pharmacodynamic index. In this study, fifty-six ICR mice were randomly divided into 8 groups, named control group (normal animal), model group (without drug), indomethacin group (positive drug, 10 mg/kg, po), ADR injection group (10 mg/kg, iv), ADR group (100 mg/kg, po), L-S-C-TANs group (low dose of S-C-TANs, 25 mg/kg, po), M-S-C-TANs group (middle dose of S-C-TANs, 50 mg/kg, po) and H-S-C-TANs group (high dose of S-C-TANs, 100 mg/kg, po). […] Cellular inflammatory factors, like TNF-α, IL-1β, and IL-6, were measured by Elisa Kit.
To explore whether the enhancing on bioavailability could result in enhanced therapeutic effect, we studied the anti-inflammatory efficacy of nanocrystal. The ear swelling ICR mice model was established by using arachidonic acid and the anti-inflammatory efficacy was evaluated by employing ear swelling rate of ICR mice serum levels of TNF-α, IL-6 and IL-1β, as pharmacodynamic index. […]

[3] = Oil-water partition coefficient (Log P); format: physicochemical
Text: Combining the saturated solubility and log P of each group (shown in Table S1, it could be seen that the greater the saturated solubility is, the greater the log P value is.

[4] = Pharmacokinetic study after gavage; format: in vivo; settings: SD rats, 50 mg/kg by gavage
Procedure: We explored oral absorption enhancing ability of andrographolide nanocrystals by operating pharmacokinetic studies on SD rat. In brief, twenty-five SD rats were randomly divided into 5 groups, and administrated ADR-water (dispersed ADR in water), ANs, SANs, TANs and S-C-TANs at 50 mg/kg by gavage (Chen et al., [2014]). After administrated for 0.083, 0.25, 0.5, 0.75, 1, 2, 4, 6, 8, 12 and 24 h, about 0.3 mL blood sample was collected by retro-orbital puncture. The plasma was centrifuged at 4,000 r/min for 10 min at 4 °C and stored at −20 °C. The andrographolide concentrations in plasma samples were detected after treatments as following: 50 μL plasma samples, 25 μL luteolin solution (internal standard 10.11 μg/mL) and 200 μL methanol solution were mixed by vortexing for 5 min. The mixed solution was subsequently centrifuged at 12,000 rpm for 10 min and the supernatant was collected and dried at room temperature under a stream of nitrogen. The residue was reconstituted with 50 μL methanol and mixed by vortexing for 3 min. after centrifuging at 12,000 rpm for 10 min, the supernatant was injected into the HPLC system for analysis. The ADR concentration in plasma samples was detected by HPLC following the conditions shown in supplementary materials, and pharmacokinetic parameters were calculated using the DAS 3.3.0 pharmacokinetics program (developed by the Clinical Trial Center of Shanghai University of Traditional Chinese Medicine, Shanghai, China).
Andrographolide was analyzed at 225 nm using HPLC linked to a Ultimate^Ⓡ XB-C18 (4.6 mm ×250 mm, 5μm) column. The mobile phase, consisting of methanol and 0.2% phosphoric acid (46:54, v/v), was pumped at 1 mL/min. The column temperature was 35℃.

[5] = Saturated solubility study (shaking 24 h, HPLC); format: physicochemical; settings: read-out: Saturation solubility
Procedure: Briefly, excess formulation powders were added into 5 mL buffers, and shaked at 37 °C for 24 h, then the undissolved drug was removed by centrifuging at 13, 000 rpm for 10 min and filtering with 0.22 μm microporous membrane. The drug concentration in the filtrate was determined by HPLC. The freshly prepared ANs, SANs, TANs and S-C-TANs were directly shaking for 24 h at 37 °C, and treated as that of andrographolide, thereafter. ADR was analyzed at 225 nm and at 35 °C using HPLC linked to Ultimate^Ⓡ XB-C18 (4.6 mm × 250 mm, 5 μm) column. The mobile phase which consisted of methanol and water (60:40, v/v) was pumped at 1 mL/min. The HPLC analysis met the methodological requirements by validating.

MDCK cells = assay: Cytotoxicity of nanocrystals; format: cell-based; settings: drug concentration above 100 μg/mL
[6] = SDS-CS-TPGS and ADR administered at the same time

T4(50), time of 50% passing the fourth segment of small intestine [1, 6]: 0.65 ± 0.04 h
T5(50), time of 50% passing the fifth segment of small intestine [1, 6]: 1.02 ± 0.01 h
T6(50), time of 50% passing the sixth segment of small intestine [1, 6]: 1.03 ± 0.01 h
T4(50), time of 50% passing the fourth segment of small intestine ([1]; given alone): 0.65 ± 0.02 h
T5(50), time of 50% passing the fifth segment of small intestine ([1]; given alone): 1.16 ± 0.10 h
T6(50), time of 50% passing the sixth segment of small intestine ([1]; given alone): 2.08 ± 0.05 h
logP ([3]; Water, 25℃): 1.78 ± 0.02
logP ([3]; Water, 37℃): 1.76 ± 0.01
logP ([3]; pH 1.2, pH1.2, 25℃): 1.85 ± 0.02
logP ([3]; pH 1.2, pH1.2, 37℃): 1.84 ± 0.02
logP ([3]; pH 4, pH4.0, 25℃): 1.85 ± 0.02
logP ([3]; pH 4, pH4.0, 37℃): 1.87 ± 0.02
logP ([3]; pH 6.8, pH6.8, 25℃): 1.88 ± 0.02
logP ([3]; pH 6.8, pH6.8, 37℃): 1.94 ± 0.02
Fr (relative bioavailability) ([4]; compared with ADR-Water): 100%
bioavailability ([4]; rat, plasma, po, read-out: Fa (absolute bioavailability)): 1.83%
AUC(0-inf) ([4]; rat, po, plasma): 1290 ng·h/mL
AUC(0-t) ([4]; rat, po, plasma): 1290 ± 218 ng·h/mL
Cmax ([4]; rat, po, plasma): 229 ± 82 ng/mL
Tmax ([4]; rat, po, plasma): 0.717 ± 0.415 h
half-life ([4]; rat, po, plasma): 2.81 ± 0.232 h
CL/F ([4]; rat, po, plasma, read-out: CLz/F (converted)): 661 mL/min/kg
MRT last ([4]; rat, po, plasma, read-out: MRT0-t): 5.66 ± 1.26 h
MRT inf ([4]; rat, po, plasma, read-out: MRT0-∞): 5.75 ± 1.26 h
Vd/F ([4]; rat, po, plasma, read-out: Vz/F): 161 ± 31.4 L/kg
solubility at 24 h ([5]; citrate - disodium hydrogen phosphate buffer, 37 °C, pH 4, aqueous buffer, thermodynamic from solid, pH4.0 (C-DHPB)): 37.68 ± 0.24 µg/mL (≈ 108 µM)
solubility at 24 h ([5]; hydrochloric acid aqueous solution, 37 °C, pH 1.2, simulated gastric fluid, thermodynamic from solid, pH1.2 (HCl)): 38.2 ± 0.95 µg/mL (≈ 109 µM)
solubility at 24 h ([5]; phosphate buffered saline, 37 °C, pH 6.8, aqueous buffer, thermodynamic from solid, pH6.8 (PBS)): 32.5 ± 0.42 µg/mL (≈ 92.8 µM)
solubility at 24 h ([5]; purified water, 37℃): 40.8 ± 0.64 µg/mL (≈ 116 µM)
SMILES: C=C1CC[C@@H]2[C@](C)(CO)[C@H](O)CC[C@@]2(C)[C@@H]1C/C=C1/C(=O)OC[C@H]1O [ADR, andrographolide]
anti-ear swelling efficacy, order of all groups [2]: ADR injection group > H-S-C-TANs group > positive drug group > M-S-C-TANs group > ADR group ≈ L-S-C-TANs group
cytotoxicity (MDCK cells): toxicity of ADR emerged

SMILES: CCCCCCCCCCCCOS(=O)(=O)[O-].[Na+] [SDS, Sodium dodecyl sulfate]
T4(50), time of 50% passing the fourth segment of small intestine ([1]; given alone): 0.89 ± 0.03 h
T5(50), time of 50% passing the fifth segment of small intestine ([1]; given alone): 1.52 ± 0.12 h
T6(50), time of 50% passing the sixth segment of small intestine ([1]; given alone): 2.40 ± 0.02 h

SMILES: COc1ccc2c(c1)c(CC(=O)O)c(C)n2C(=O)c1ccc(Cl)cc1 [indomethacin, Indomethacin]
anti-ear swelling efficacy, order of all groups [2]: ADR injection group > H-S-C-TANs group > positive drug group > M-S-C-TANs group > ADR group ≈ L-S-C-TANs group
